Two compounds from patent US9492398B2, “Nanocapsulation of essential oils for preventing or curing infectious diseases alone or with an antibiotic” (Eydo Pharma, priority 2011, dated 2016) can be followed below.

≈ marks a conversion by molar mass, not a printed value. Read-outs that look alike come from different tables or passages of the source.

The subject of one assay is S. aureus ATCC25923. Nature of the assay: Minimal inhibitory concentration on Mueller Hinton Agar (Example 13). Particulars: Staphlococcus aureus. It is filed as cell-based, Staphylococcus aureus. The procedure:
(§1) Mueller Hinton Agar was used in a standardized disk diffusion procedure for determining the susceptibility of rapidly growing aerobic microorganisms to antimicrobial agents.
(§2) The test to evaluate the increase in resistance was carried out with a concentration of the product of two times the Minimal Inhibitory Concentration (MIC).

Assay [1] relates to SARM S. aureus ATCC25923. The assay is described as above. It is filed as cell-based, Staphylococcus aureus. Conditions: Staphylococcus aureus. The procedure:
as §1, §2

Assay [2] deals with SARM S. aureus ATCC25923. The experiment in a line: In vitro emergence of resistance over passages. It is filed as cell-based, Staphylococcus aureus. Here is the method:
as §1, §2

The next assay has as its system P. aeroginosa 0703C0259. Nature of the assay: Minimal inhibitory concentration on Muller-Hinton agar. It is filed as cell-based. The procedure: (§3) The essential oils were also tested individually for their minimal inhibitory concentration.
(§4) The solution was first prepared at 40% in DMSO before being placed on the Muller-Hinton agar in the following manner in Table VIII:
(§5) Twenty-two different microorganisms were tested and their minimal inhibitory concentration was tested.

A further assay deals with A. baumanni CIP7034. The assay is described as above. Conditions: A. baumanni CIP7034. It is filed as cell-based. Here is the method: as §3, §4, §5
A further assay deals with A. baumanni SAN008. Described as above. It is filed as cell-based. Conditions: A. baumanni SAN008. The procedure:
as §3, §4, §5

For a further assay, the system named is S. aureus 0702E0196. Described as above. It is filed as cell-based. The procedure:
as §3, §4, §5

A further assay relates to S. aureus 0703H0036. The description is as above. It is filed as cell-based. Here is the method:
as §3, §4, §5

A further assay deals with K. oxyloca 0705C0187. The assay is described as above. It is filed as cell-based. Conditions: K. oxyloca 0705C0187. Here is the method: as §3, §4, §5
The next assay has as its system E. aerogenes 0705A0867. Described as above. It is filed as cell-based. The procedure:
as §3, §4, §5

For another assay, the system named is S. aureus 0706C0025. Described as above. It is filed as cell-based. Particulars: Staphylococcus aureus, 0706C0025, S. aureus 0706C0025; read-out: Minimal Inhibitory Concentration. Here is the method: as §3, §4, §5
The subject of the next assay is E. coli ATCC25922. Described as above. It is filed as cell-based. Here is the method:
as §3, §4, §5

The test system of the next assay is P. aeroginosa 0704C0134. Described as above. It is filed as cell-based. Particulars: P. aeroginosa 0704C0134. Here is the method: as §3, §4, §5
A further assay deals with S. aureus ATC25923. Described as above. It is filed as cell-based. Here is the method:
as §3, §4, §5

For a further assay, the system named is A. baumanni AYE. The description is as above. It is filed as cell-based. Particulars: A. baumanni AYE. Here is the method:
as §3, §4, §5

Another assay concerns Salmonell enteritidis 4. The assay is described as above. It is filed as cell-based. Conditions: Salmonell enteritidis 4. The procedure:
as §3, §4, §5

A further assay concerns P. aeroginosa ATCC27853. The description is as above. It is filed as cell-based. Conditions: P. aeroginosa ATCC27853; read-out: Minimal Inhibitory Concentration. Here is the method: as §3, §4, §5
A further assay relates to E. coli 0705A0434. Described as above. It is filed as cell-based. Here is the method: as §3, §4, §5
Another assay concerns E. cloacae 0705A1743. The description is as above. It is filed as cell-based. The procedure:
as §3, §4, §5

For the next assay, the system named is A. baumanni CIP107292. Described as above. It is filed as cell-based. Particulars: A. baumanni CIP107292; read-out: Minimal Inhibitory Concentration. Here is the method:
as §3, §4, §5

A further assay relates to A. baumanni RCH. The assay is described as above. It is filed as cell-based. Conditions: A. baumanni RCH. Here is the method: as §3, §4, §5
A further assay relates to A. baumanni CIP5377. Described as above. It is filed as cell-based. Particulars: A. baumanni CIP5377. Here is the method: as §3, §4, §5
The test system of a further assay is A. baumanni 12. Described as above. Particulars: A. baumanni 12. It is filed as cell-based. Here is the method:
as §3, §4, §5

Another assay concerns S. aureus 0701A0095. The assay is described as above. It is filed as cell-based. The procedure:
as §3, §4, §5

Where [3] appears, read: read-out: Minimal Inhibitory Concentration.

For the compound `CO[C@H]1/C=C/O[C@@]2(C)Oc3c(C)c(O)c4c(O)c(c(/C=N/N5CCN(C)CC5)c(O)c4c3C2=O)NC(=O)/C(C)=C\C=C\[C@H](C)[C@H](O)[C@@H](C)[C@@H](O)[C@@H](C)[C@H](OC(C)=O)[C@@H]1C` [Rifampicin], the “2 times the minimal inhibitory concentration” value in the assay with S. aureus ATCC25923 amounted to 0.16 µg/mL. Further, in the assay with SARM S. aureus ATCC25923 [1] (ATCC25923, read-out: Minimal inhibitory concentration), the MIC worked out at 0.008 µg/mL (≈ 9.72e-06 mM). The MIC in the assay with SARM S. aureus ATCC25923 [1] (ATCC25923, read-out: Minimal inhibitory concentration/4) worked out at 0.002 µg/mL (≈ 2.43e-06 mM). Besides, the “appearance of resistance, passage” value with SARM S. aureus ATCC25923 [2] (Staphylococcus aureus) is 6. Moreover, in the assay with SARM S. aureus ATCC25923 [2] (after appearance of resistance), the “concentration at which inhibitory activity reappeared” value was found to be 0.38 ml/I and the “times the initial minimal inhibitory concentration” value is listed as 47.5.
For the compound `C=CCc1ccc(O)c(OC)c1` [eugenol], the MIC was 2500 µg/mL (≈ 15.2 mM) against P. aeroginosa 0703C0259; 1000 µg/mL (≈ 6.09 mM) with A. baumanni CIP7034 (setting [3]); 750 µg/mL (≈ 4.57 mM) in the assay with A. baumanni SAN008 (setting [3]); 1000 µg/mL (≈ 6.09 mM) in the assay with S. aureus 0702E0196 (Staphylococcus aureus, 0702E0196, S. aureus 0702E0196, read-out: Minimal Inhibitory Concentration); 1000 µg/mL (≈ 6.09 mM) in the assay on S. aureus 0703H0036 (Staphylococcus aureus, 0703H0036, S. aureus 0703H0036, read-out: Minimal Inhibitory Concentration); 1000 µg/mL (≈ 6.09 mM) with K. oxyloca 0705C0187 (setting [3]). Moreover, the MIC was 1000 µg/mL (≈ 6.09 mM) in the assay on E. aerogenes 0705A0867 (Klebsiella aerogenes, 0705A0867, E. aerogenes 0705A0867, read-out: Minimal Inhibitory Concentration); 1000 µg/mL (≈ 6.09 mM) with S. aureus 0706C0025; 750 µg/mL (≈ 4.57 mM) with E. coli ATCC25922 (Escherichia coli, ATCC25922, E. coli ATCC25922, read-out: Minimal Inhibitory Concentration); 1500 µg/mL (≈ 9.13 mM) with P. aeroginosa 0704C0134 (setting [3]); 750 µg/mL (≈ 4.57 mM) with S. aureus ATC25923 (Staphylococcus aureus, ATC25923, S. aureus ATC25923, read-out: Minimal Inhibitory Concentration); 750 µg/mL (≈ 4.57 mM) in the assay on A. baumanni AYE (setting [3]). For the same compound, the MIC is 1000 µg/mL (≈ 6.09 mM) in the assay on Salmonell enteritidis 4 (setting [3]); 7500 µg/mL (≈ 45.7 mM) in the assay on P. aeroginosa ATCC27853; 1000 µg/mL (≈ 6.09 mM) in the assay on E. coli 0705A0434 (Escherichia coli, 0705A0434, E. coli 0705A0434, read-out: Minimal Inhibitory Concentration); 1000 µg/mL (≈ 6.09 mM) with E. cloacae 0705A1743 (Enterobacter cloacae, 0705A1743, E. cloacae 0705A1743, read-out: Minimal Inhibitory Concentration); 1000 µg/mL (≈ 6.09 mM) with A. baumanni CIP107292; 750 µg/mL (≈ 4.57 mM) in the assay with A. baumanni RCH (setting [3]). For the same compound, the MIC with A. baumanni CIP5377 (setting [3]) amounted to 500 µg/mL (≈ 3.04 mM); with A. baumanni 12 (setting [3]), 1000 µg/mL (≈ 6.09 mM); in the assay with S. aureus 0701A0095 (Staphylococcus aureus, 0701A0095, S. aureus 0701A0095, read-out: Minimal Inhibitory Concentration) it was 750 µg/mL (≈ 4.57 mM). Also, the “Minimal Inhibitory Concentration” value in the assay with P. aeroginosa 0703C0259 was found to be 5 mg/mL; in the assay with A. baumanni CIP7034 it was 1.5 mg/mL; in the assay with A. baumanni SAN008, 1.5 mg/mL; in the assay with S. aureus 0702E0196 (S. aureus 0702E0196), 1.5 mg/mL; in the assay on S. aureus 0703H0036 (S. aureus 0703H0036), 1.5 mg/mL; in the assay with K. oxyloca 0705C0187, 1.5 mg/mL. In addition, the “Minimal Inhibitory Concentration” value in the assay with E. aerogenes 0705A0867 (E. aerogenes 0705A0867) turned out to be 1.5 mg/mL; in the assay with E. coli ATCC25922 (E. coli ATCC25922), 1.5 mg/mL; with P. aeroginosa 0704C0134, 2 mg/mL; in the assay with S. aureus ATC25923 (S. aureus ATC25923), 1.5 mg/mL; with A. baumanni AYE, 1 mg/mL; in the assay with Salmonell enteritidis 4, 1.5 mg/mL. For the same compound, the “Minimal Inhibitory Concentration” value in the assay with E. coli 0705A0434 (E. coli 0705A0434) was found to be 1.5 mg/mL; in the assay with E. cloacae 0705A1743 (E. cloacae 0705A1743) it was 1.5 mg/mL; with A. baumanni RCH it was 1 mg/mL; in the assay on A. baumanni CIP5377 it was 1 mg/mL; with A. baumanni 12, 1.5 mg/mL; in the assay with S. aureus 0701A0095 (S. aureus 0701A0095), 1.5 mg/mL.
